Tests used:
[1] = system: Agrobacterium tumefaciens LBA4404s; experiment: Bacterial strain response to glufosinate on minimal media; type: cell-based; parameters: key: +++ = Heavy Lawn Growth; ++ = Light lawn growth; + = patchy lawn growth; −− = No Growth; conditions: 48 hrs @ 25 C
Description: (§1) Selected cell lines of Escherichia coli and Agrobacterium tumefaciens were inoculated on minimal media containing incrementally increasing concentrations of Glufosinate (BASTA). The cell lines; BL21-Star (DE3), Top10, DH5α, Agrobacterium tumefaciens C58, and Agrobacterium tumefaciens LBA4404s were initially grown up on complex media. The Escherichia coli strains were grown in LB and the Agrobacterium tumefaciens strains were grown in YEP. Five microliters of bacterial culture was inoculated and dispersed evenly onto minimal media plates containing various concentrations of glufosinate. The concentrations consisted of 0 μg/ml, 250 μg/ml, 500 μg/ml, 1000 μg/ml, 2000 μg/ml, and 4000 μg/ml of BASTA. In addition, the bacterial strains were inoculated onto a plate of complex media as a control—Agrobacterium tumefaciens strains were inoculated on YEP agar plates, and Escherichia coli strains were inoculated on LB agar plates. The plates containing the Escherichia coli strains were incubated at 37° C. for 24 hours. The plates containing the Agrobacterium tumefaciens strains were incubate at 25° C. for 48 hours. […] Table 7 illustrates the capability of the various strains to grow on minimal media containing glufosinate.

[2] = system: Agrobacterium tumefaciens C58; experiment: as above; type: cell-based; parameters: key: +++ = Heavy Lawn Growth; ++ = Light lawn growth; + = patchy lawn growth; −− = No Growth; conditions: 48 hrs @ 25 C
Description: as §1

Wildtype corn = experiment: Leaf paint with glufosinate in corn; type: in vivo; conditions: for % Injury: 2 WAT
Description: (§2) T0 DSM-2 (v2) plants were painted with a rundown of glufosinate herbicide. Four siblings from each of 15 T0 events were tested, and 4 leaves on each individual plant received a rundown of glufosinate at approximately V8 stage. Rundown treatments were randomized for each rate allowing for variation of treatment location on individual leaves. For corn, 0.25% v/v glufosinate is the minimum effective dose to distinguish sensitive plants from ones with meaningful levels of resistance. Elevated rates were also applied to determine relative levels of resistance (0.5%, 1.0%, and 2.0% v/v). Glufosinate treatments were applied using cotton tipped applicators to a treatment area of approximately 2.5 cm in diameter.
(§3) Table 11 compares the response of DSM-2 (v2) and control genes to impart glufosinate resistance to corn T0 transformants. Response is presented in terms of % visual injury 2 WAT. […] Since each T0 is an independent transformation event, one can expect significant variation of individual T0 responses within a given rate. An arithmetic mean and standard deviation is presented for each treatment. Untransformed wildtype corn served as a glufosinate sensitive control. The DSM-2 (v2) gene imparted herbicide resistance to individual T0 corn plants. Within a given treatment, the level of plant response varied greatly and can be attributed to the fact each plant represents an independent transformation event.

E. coli BL21-Star (DE3) = experiment: Bacterial strain response to glufosinate on minimal media; type: cell-based, Escherichia coli; parameters: key to bacterial growth on minimal media: +++ = Heavy Lawn Growth; ++ = Light lawn growth; + = patchy lawn growth; −− = No Growth; conditions: for bacterial growth on minimal media: 24 hrs @ 37 C
Description: as §1

[3] = system: T0 DSM-2 (v2)-transformed corn plants; experiment: Leaf paint with glufosinate in T0 corn; type: in vivo; conditions: for % Injury: 2 WAT
Description: as §2, §3

[4] = system: T0 PAT-transformed corn plants; experiment: Leaf paint with glufosinate in T0 corn; type: in vivo; conditions: 2 WAT
Description: as §2, §3

[5] = 0.25% v/v glufosinate leaf paint
[6] = 0.5% v/v glufosinate leaf paint

SMILES: CP(=O)(O)CCC(N)C(=O)O (stereo not shown) [glufosinate]
- bacterial growth on minimal media ([1]; 250 μg/ml BASTA): +++
- bacterial growth on minimal media ([1]; 500 μg/ml BASTA): ++
- bacterial growth on minimal media ([1]; 1000 μg/ml BASTA): ++
- bacterial growth on minimal media ([1]; 2000 μg/ml BASTA): +
- bacterial growth on minimal media ([1]; 4000 μg/ml BASTA): −−
- bacterial growth on minimal media ([2]; 250 μg/ml BASTA): +++
- bacterial growth on minimal media ([2]; 500 μg/ml BASTA): +++
- bacterial growth on minimal media ([2]; 1000 μg/ml BASTA): +++
- bacterial growth on minimal media ([2]; 2000 μg/ml BASTA): ++
- bacterial growth on minimal media ([2]; 4000 μg/ml BASTA): −−
- % Injury (Wildtype corn; [5]): 33%
- % Injury (Wildtype corn; [6]): 50%
- % Injury (Wildtype corn; 1% v/v glufosinate leaf paint): 84%
- % Injury (Wildtype corn; 2% v/v glufosinate leaf paint): 90%
- minimum effective dose to distinguish sensitive plants from ones with meaningful levels of resistance (Wildtype corn; corn, leaf paint): 0.25 % v/v
- bacterial growth on minimal media (E. coli BL21-Star (DE3); 250 μg/ml BASTA): −−
- bacterial growth on minimal media (E. coli BL21-Star (DE3); 500 μg/ml BASTA): −−
- bacterial growth on minimal media (E. coli BL21-Star (DE3); 1000 μg/ml BASTA): −−
- bacterial growth on minimal media (E. coli BL21-Star (DE3); 2000 μg/ml BASTA): −−
- bacterial growth on minimal media (E. coli BL21-Star (DE3); 4000 μg/ml BASTA): −−
- concentration in minimal media at which the cell line was inhibited (E. coli BL21-Star (DE3); minimal media): 100 µg/mL
- inhibition of strain by glufosinate (E. coli BL21-Star (DE3); minimal media, 250-4000 μg/ml BASTA): substantially inhibited
- % Injury [3, 5]: 0%
- % Injury [3, 6]: 1%
- % Injury ([3]; 1% v/v glufosinate leaf paint): 2%
- % Injury ([3]; 2% v/v glufosinate leaf paint): 4%
- performance compared to PAT-transformed plants ([3]; up to 2% v/v glufosinate): performs better overall than PAT-transformed plants
- % Injury [4, 5]: 1%
- % Injury [4, 6]: 3%
- % Injury ([4]; 1% v/v glufosinate leaf paint): 6%
- % Injury ([4]; 2% v/v glufosinate leaf paint): 9%

— patent US20110195845A1, “Constructs for Expressing Herbicide Tolerance Genes, Related Plants, and Related Trait Combinations” (Dow AgroSciences LLC, priority 2008, published 2011)
